In PubChem BioAssay (NCI):
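Step 1: Grow cells in 96-well plates. Step 2: Expose to compound for 48 hours at 5 concentrations. Step 3: Interpolate endpoints linearly; if unreached, use highest concentration. GI50: concentration for 50% inhibition of growth. TGI is the concentration that stops growth completely.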

Assays:
Assay in all cases: inhibition of tumour cell growth, NCI panel, 48 h
IGROV1 ovarian = test system: IGROV1 ovarian
DU-145 prostate = test system: DU-145 prostate
SNB-75 CNS = test system: SNB-75 CNS
NCI-H460 lung = test system: NCI-H460 lung
COLO 205 colon = test system: COLO 205 colon
OVCAR-3 ovarian = test system: OVCAR-3 ovarian
SK-OV-3 ovarian = test system: SK-OV-3 ovarian
SK-MEL-28 melanoma = test system: SK-MEL-28 melanoma
SN12C renal = test system: SN12C renal
SF-539 CNS = test system: SF-539 CNS
CAKI-1 renal = test system: CAKI-1 renal
UO-31 renal = test system: UO-31 renal
SW-620 colon = test system: SW-620 colon
M14 melanoma = test system: M14 melanoma
SK-MEL-2 melanoma = test system: SK-MEL-2 melanoma
SK-MEL-5 melanoma = test system: SK-MEL-5 melanoma
HCT-15 colon = test system: HCT-15 colon
UACC-257 melanoma = test system: UACC-257 melanoma
TK-10 renal = test system: TK-10 renal
HOP-92 NSCLC = test system: HOP-92 NSCLC
NCI-H226 lung = test system: NCI-H226 lung
SF-268 CNS = test system: SF-268 CNS
MOLT-4 leukemia = test system: MOLT-4 leukemia
RXF 393 renal = test system: RXF 393 renal
786-0 renal = test system: 786-0 renal
HS 578T breast = test system: HS 578T breast
HT29 colon = test system: HT29 colon
SF-295 CNS = test system: SF-295 CNS
LOX IMVI melanoma = test system: LOX IMVI melanoma
NCI-H23 lung = test system: NCI-H23 lung
PC-3 prostate = test system: PC-3 prostate
NCI/ADR-RES ovarian = test system: NCI/ADR-RES ovarian
NCI-H522 lung = test system: NCI-H522 lung
A549 NSCLC = test system: A549 NSCLC
SR leukemia = test system: SR leukemia
ACHN renal = test system: ACHN renal
HL-60(TB) leukemia = test system: HL-60(TB) leukemia
A498 renal = test system: A498 renal
MCF7 breast = test system: MCF7 breast
SNB-19 CNS = test system: SNB-19 CNS
UACC-62 melanoma = test system: UACC-62 melanoma
U251 CNS = test system: U251 CNS
MDA-MB-468 breast = test system: MDA-MB-468 breast
OVCAR-5 ovarian = test system: OVCAR-5 ovarian
EKVX NSCLC = test system: EKVX NSCLC
MDA-MB-435 = test system: MDA-MB-435
MALME-3M melanoma = test system: MALME-3M melanoma
HCC-2998 colon = test system: HCC-2998 colon
CCRF-CEM leukemia = test system: CCRF-CEM leukemia
RPMI-8226 leukemia = test system: RPMI-8226 leukemia
OVCAR-8 ovarian = test system: OVCAR-8 ovarian
OVCAR-4 ovarian = test system: OVCAR-4 ovarian
KM12 colon = test system: KM12 colon
HCT-116 colon = test system: HCT-116 colon
K-562 leukemia = test system: K-562 leukemia
T-47D breast = test system: T-47D breast
HOP-62 NSCLC = test system: HOP-62 NSCLC
BT-549 breast = test system: BT-549 breast
MDA-MB-231 breast = test system: MDA-MB-231 breast

Q: With `COc1cc2c3c(n(CCCNCCO)c(=O)c2cc1OC)-c1nc2c(cc1C3=O)OCO2` as the compound, how does the GI50 (IGROV1 ovarian) read?
A: 11.4 µM

Q: And the TGI (IGROV1 ovarian)?
A: 26.2 µM

Q: And the GI50 (DU-145 prostate)?
A: 2.71 µM

Q: What about the TGI (DU-145 prostate) of the same compound?
A: 14.1 µM

Q: What about the GI50 (SNB-75 CNS) of the same compound?
A: 0.83 µM

Q: And the TGI (SNB-75 CNS)?
A: 28.2 µM

Q: And the GI50 (NCI-H460 lung)?
A: 1.22 µM

Q: What about the TGI (NCI-H460 lung) of the same compound?
A: 11.8 µM

Q: And the GI50 (COLO 205 colon)?
A: 5.88 µM

Q: And the TGI (COLO 205 colon)?
A: 21.9 µM

Q: And the GI50 (OVCAR-3 ovarian)?
A: 5.65 µM

Q: And the TGI (OVCAR-3 ovarian)?
A: 20.8 µM

Q: And the GI50 (SK-OV-3 ovarian)?
A: 3.27 µM

Q: What about the TGI (SK-OV-3 ovarian) of the same compound?
A: 12.4 µM

Q: What about the GI50 (SK-MEL-28 melanoma) of the same compound?
A: 13.5 µM

Q: What about the TGI (SK-MEL-28 melanoma) of the same compound?
A: 26.9 µM

Q: What about the GI50 (SN12C renal) of the same compound?
A: 3.94 µM

Q: And the TGI (SN12C renal)?
A: 16.4 µM

Q: And the GI50 (SF-539 CNS)?
A: 0.996 µM

Q: What about the TGI (SF-539 CNS) of the same compound?
A: 3.24 µM

Q: What about the GI50 (CAKI-1 renal) of the same compound?
A: 2.39 µM

Q: And the TGI (CAKI-1 renal)?
A: 16.5 µM

Q: What about the GI50 (UO-31 renal) of the same compound?
A: 7.47 µM

Q: What about the TGI (UO-31 renal) of the same compound?
A: 21.7 µM

Q: And the GI50 (SW-620 colon)?
A: 2.01 µM

Q: And the TGI (SW-620 colon)?
A: 16.8 µM

Q: And the GI50 (M14 melanoma)?
A: 4.35 µM

Q: And the TGI (M14 melanoma)?
A: 16.8 µM

Q: And the GI50 (SK-MEL-2 melanoma)?
A: 17.7 µM

Q: What about the TGI (SK-MEL-2 melanoma) of the same compound?
A: 33 µM

Q: And the GI50 (SK-MEL-5 melanoma)?
A: 1.54 µM

Q: And the TGI (SK-MEL-5 melanoma)?
A: 10.5 µM

Q: What about the GI50 (HCT-15 colon) of the same compound?
A: 9.17 µM

Q: What about the TGI (HCT-15 colon) of the same compound?
A: 27.9 µM

Q: What about the GI50 (UACC-257 melanoma) of the same compound?
A: 15.4 µM

Q: What about the TGI (UACC-257 melanoma) of the same compound?
A: 31.2 µM

Q: What about the GI50 (TK-10 renal) of the same compound?
A: 19 µM

Q: And the TGI (TK-10 renal)?
A: 46 µM

Q: What about the GI50 (HOP-92 NSCLC) of the same compound?
A: 9.2 µM

Q: What about the TGI (HOP-92 NSCLC) of the same compound?
A: 23.3 µM

Q: What about the GI50 (NCI-H226 lung) of the same compound?
A: 1.54 µM

Q: What about the TGI (NCI-H226 lung) of the same compound?
A: 6.62 µM

Q: What about the GI50 (SF-268 CNS) of the same compound?
A: 3.24 µM

Q: What about the TGI (SF-268 CNS) of the same compound?
A: 19.9 µM

Q: And the GI50 (MOLT-4 leukemia)?
A: 0.364 µM

Q: What about the TGI (MOLT-4 leukemia) of the same compound?
A: 34.8 µM

Q: What about the GI50 (RXF 393 renal) of the same compound?
A: 1.83 µM

Q: And the TGI (RXF 393 renal)?
A: 7.21 µM

Q: What about the GI50 (786-0 renal) of the same compound?
A: 2.43 µM

Q: And the TGI (786-0 renal)?
A: 11.8 µM

Q: What about the GI50 (HS 578T breast) of the same compound?
A: 11.6 µM

Q: What about the TGI (HS 578T breast) of the same compound?
A: 31.6 µM

Q: And the GI50 (HT29 colon)?
A: 2.69 µM

Q: What about the TGI (HT29 colon) of the same compound?
A: 11.3 µM

Q: What about the GI50 (SF-295 CNS) of the same compound?
A: 0.702 µM

Q: And the TGI (SF-295 CNS)?
A: 12 µM

Q: And the GI50 (LOX IMVI melanoma)?
A: 0.534 µM

Q: And the TGI (LOX IMVI melanoma)?
A: 1.98 µM

Q: What about the GI50 (NCI-H23 lung) of the same compound?
A: 0.582 µM

Q: And the TGI (NCI-H23 lung)?
A: 3.27 µM

Q: And the GI50 (PC-3 prostate)?
A: 3.06 µM

Q: And the TGI (PC-3 prostate)?
A: 19.1 µM

Q: What about the GI50 (NCI/ADR-RES ovarian) of the same compound?
A: 58.1 µM

Q: And the TGI (NCI/ADR-RES ovarian)?
A: > 100 µM

Q: And the GI50 (NCI-H522 lung)?
A: 0.886 µM

Q: And the TGI (NCI-H522 lung)?
A: 3.04 µM

Q: And the GI50 (A549 NSCLC)?
A: 6.72 µM

Q: What about the TGI (A549 NSCLC) of the same compound?
A: 21.6 µM

Q: And the GI50 (SR leukemia)?
A: 0.624 µM

Q: And the TGI (SR leukemia)?
A: 11.3 µM

Q: What about the GI50 (ACHN renal) of the same compound?
A: 3.46 µM

Q: What about the TGI (ACHN renal) of the same compound?
A: 14 µM

Q: And the GI50 (HL-60(TB) leukemia)?
A: 0.64 µM

Q: And the TGI (HL-60(TB) leukemia)?
A: 12.2 µM

Q: What about the GI50 (A498 renal) of the same compound?
A: 13.4 µM

Q: What about the TGI (A498 renal) of the same compound?
A: 27.2 µM

Q: What about the GI50 (MCF7 breast) of the same compound?
A: 0.256 µM

Q: What about the TGI (MCF7 breast) of the same compound?
A: 8.62 µM

Q: And the GI50 (SNB-19 CNS)?
A: 2.52 µM

Q: What about the TGI (SNB-19 CNS) of the same compound?
A: 14.6 µM

Q: And the GI50 (UACC-62 melanoma)?
A: 2.38 µM

Q: And the TGI (UACC-62 melanoma)?
A: 12.8 µM

Q: What about the GI50 (U251 CNS) of the same compound?
A: 0.82 µM

Q: And the TGI (U251 CNS)?
A: 10.7 µM

Q: What about the GI50 (MDA-MB-468 breast) of the same compound?
A: 1.41 µM

Q: And the TGI (MDA-MB-468 breast)?
A: 3.21 µM

Q: What about the GI50 (OVCAR-5 ovarian) of the same compound?
A: 4.39 µM

Q: What about the TGI (OVCAR-5 ovarian) of the same compound?
A: 15.4 µM

Q: And the GI50 (EKVX NSCLC)?
A: 7.47 µM

Q: And the TGI (EKVX NSCLC)?
A: 21.2 µM

Q: And the GI50 (MDA-MB-435)?
A: 8.89 µM

Q: And the TGI (MDA-MB-435)?
A: 22.5 µM

Q: And the GI50 (MALME-3M melanoma)?
A: 5.08 µM

Q: What about the TGI (MALME-3M melanoma) of the same compound?
A: 19.6 µM

Q: And the GI50 (HCC-2998 colon)?
A: 2.14 µM

Q: What about the TGI (HCC-2998 colon) of the same compound?
A: 13.2 µM

Q: And the GI50 (CCRF-CEM leukemia)?
A: 0.262 µM

Q: And the TGI (CCRF-CEM leukemia)?
A: 1.86 µM

Q: What about the GI50 (RPMI-8226 leukemia) of the same compound?
A: 2.54 µM

Q: What about the TGI (RPMI-8226 leukemia) of the same compound?
A: 14.8 µM

Q: And the GI50 (OVCAR-8 ovarian)?
A: 3.61 µM

Q: What about the TGI (OVCAR-8 ovarian) of the same compound?
A: 17.9 µM

Q: What about the GI50 (OVCAR-4 ovarian) of the same compound?
A: 13 µM

Q: And the TGI (OVCAR-4 ovarian)?
A: 49.5 µM

Q: What about the GI50 (KM12 colon) of the same compound?
A: 14.2 µM

Q: What about the TGI (KM12 colon) of the same compound?
A: 33.2 µM

Q: And the GI50 (HCT-116 colon)?
A: 1.25 µM

Q: And the TGI (HCT-116 colon)?
A: 2.67 µM

Q: What about the GI50 (K-562 leukemia) of the same compound?
A: 1.56 µM

Q: And the TGI (K-562 leukemia)?
A: 15 µM

Q: What about the GI50 (T-47D breast) of the same compound?
A: 1.13 µM

Q: And the TGI (T-47D breast)?
A: 12.9 µM

Q: What about the GI50 (HOP-62 NSCLC) of the same compound?
A: 0.416 µM

Q: What about the TGI (HOP-62 NSCLC) of the same compound?
A: 4.48 µM

Q: What about the GI50 (BT-549 breast) of the same compound?
A: 6.31 µM

Q: What about the TGI (BT-549 breast) of the same compound?
A: 20.5 µM

Q: What about the GI50 (MDA-MB-231 breast) of the same compound?
A: 11.3 µM

Q: What about the TGI (MDA-MB-231 breast) of the same compound?
A: 24.5 µM
